In patent US6218392A, “Fused pyridazine compounds” (priority 1994, dated 2001) one finds PAP lowering activity and IC50 data, which are given here for 26 molecules.

Counter-ions that a name gives are not always drawn.

For assay [1], the system named is pulmonary arterial pressure (PAP). Briefly: Pulmonary arterial pressure lowering activity on anesthetized thoracotomized dog by intravenous administration. In kind it is in vivo. The settings on record: relative ratio to activity of sodium 1-[chloro-4-(3,4-methylenedioxybenzyl)aminoquinazolin-2-yl]piperidine-4-carboxylate. As to the method:
Male and female hybrid dogs having a weight of about 10 kg were operated under enflurane anesthesia with N2 O/O2 as carrier. Each dog was thoracotomized in the left fourth intercostal space and a pressure transducer (MPC-500 mfd. by Miller) was inserted into the pulmonary artery to determine the pulmonary arterial pressure (PAP). This experiment was conducted with the mean PAP (mPAP) increased by about 10 mmHg by lowering the pressure of oxygen fed by about 40% of the normal one. Each compound according to the present invention was dissolved in Polyethylene glycol 400 (a product of Wako Pure Chemical Industries, Ltd.) in a concentration of 1 mg/ml and, if necessary, further diluted with Polyethylene glycol 400. The resulting solution was intravenously administered to the dog through a polyethylene catheter indwelling in the femoral vein.

For assay [2], the target named is T1, cGMP-PDE (Sus scrofa, UniProt A0A287B475).
T1 construct: Swine lung was minched, followed by the addition of five times (by volume) as much buffer A; from tissue; host or cells: swine lung
As to the kind of experiment: Inhibitory activity against cGMP-PDE prepared from swine lung. In kind it is biochemical. The settings on record: 1 mM EGTA, 1 mM cGMP as substrate, DMSO 5% or below. As to the method:
The enzyme activity of the cGMP-PDE prepared from swine lung was determined according to the method of Thompson et al. This determination was conducted in the presence of 1 mM EGTA by the use of 1 mM cGMP as substrate. Each compound according to the present invention was dissolved in DMSO and thereafter added to the reaction system to determine the inhibitory activity of the compound. The final concentration of DMSO in the reaction solution was controlled to 5% or below.
The preparation of cGMP-PDE was conducted as follows.
Swine lung was minched, followed by the addition of five times (by volume) as much buffer A (comprising Tris/HCl (20 mM), Mg acetate (2 mM), 2-mercaptoethanol (10 mM), EGTA (0.1 mM) and PMSF (0.2 mM) and adjusted to pH7.4). The resulting mixture was homogenized and centrifuged at 1000×g for 5 minutes. Ammonium sulfate was added to the obtained supernatant and the resulting mixture was centrifuged at 20000×g for 45 minutes to collect a fraction precipitating between 30 and 40% saturation with ammonium sulfate. This fraction was dialyzed against buffer A and passed through a column of DEAE-Toyopearl 650S (a product of Tosoh, Tokyo, Japan). The column was washed with buffer A and subjected to gradient elution with 0.05 to 0.2 M NaClibuffer A to collect a cGMP-PDE fraction.
This cGMP-PDE fraction was passed through Blue-Sepharose CL-6B (a product of Pharmacia, Uppsala, Sweden). The resulting column was washed with buffer A containing cAMP (10 mM) and NaCl (0.5 M) and eluted with buffer A containing cGMP (10 mM) and NaCl (0.5 M). The obtained fraction was dialyzed, concentrated and stored.

In the case of `COc1ccc(CNc2nnc(N3CCC(CO)CC3)c3ccc(C#N)cc23)cc1Cl.Cl` [Example 6, 4-(3-Chloro-4-methoxybenzyl)amino-6-cyano-1-[4-(hydroxymethyl)piperidino]phthalazine hydrochloride], the PAP lowering activity in assay [1] is 10. The molecule also displayed a half-maximal inhibitory concentration (IC50) in assay [2] of 0.015 nM.

Consider `COc1ccc(CNc2nnc(NCCCO)c3ccc(C#N)cc23)cc1Cl` [Example 7, 4-(3-Chloro-4-methoxybenzyl)amino-6-cyano-1-(3-hydroxypropyl)aminophthalazine], for which the PAP lowering activity in assay [1] is on record as 1. The molecule further showed an IC50 in assay [2] of 1.2 nM.

Take `COc1ccc(CNc2nnc(N3CCC(CCO)CC3)c3ccc(C#N)cc23)cc1Cl.Cl` [Example 8, 4-(3-Chloro-4-methoxybenzyl)amino-6-cyano-1-[4-(2-hydroxyethyl)piperidino]phthalazine hydrochloride]: in assay [1], the PAP lowering activity was determined as 10. The same molecule yielded an IC50 in assay [2] of 0.03 nM.

Turning to `COc1ccc(CNc2nnc(N3CCCC(O)C3)c3ccc(C#N)cc23)cc1Cl.Cl` (stereo not drawn) [Example 10, 4-(3-Chloro-4-methoxybenzyl)amino-6-cyano-1-(3-hydroxypiperidino)phthalazine hydrochloride], the PAP lowering activity in assay [1] is 10.

As to `O=[N+]([O-])c1ccc2c(-n3ccnc3)nnc(NCc3ccc4c(c3)OCO4)c2c1` [Example 60, 1-(Imidazol-1-yl)-4-(3,4-methylenedioxybenzyl)amino-6-nitrophthalazine], the PAP lowering activity in assay [1] was determined as 1. Besides, the IC50 in assay [2] came to 20.4 nM.

Turning to `COc1ccc(CNc2nnc(-n3ccnc3)c3ccc(Cl)cc23)cc1Cl` [Example 31, 6-Chloro-4-(3-chloro-4-methoxybenzyl)amino-1-(imidazol-1-yl)phthalazine], in assay [1], the PAP lowering activity was 1. The molecule further showed an IC50 in assay [2] of 3.74 nM.

With `COc1ccc(CNc2nnc(N3CCC(CCO)CC3)c3ccc(Cl)cc23)cc1Cl` [Example 37, 6-Chloro-4-(3-chloro-4-methoxybenzyl)amino-1-[4-(2-hydroxyethyl)piperidino]phthalazine], the PAP lowering activity in assay [1] is reported as at most 0.33. The molecule also displayed a concentration for half-maximal inhibition (IC50) in assay [2] of 1.8 nM.

`COc1ccc(CNc2nnc(N3CCC(C(=O)O)CC3)c3ccc([N+](=O)[O-])cc23)cc1Cl.Cl` [Example 56, 1-(4-Carboxypiperidino)-4-(3-chloro-4-methoxybenzyl)amino-6-nitrophthalazine hydrochloride]: the PAP lowering activity in assay [1] is recorded as at least 1. This molecule gave an IC50 in assay [2] of 12.6 nM.

On to `COc1ccc(CNc2nnc(N3CCC(O)CC3)c3ccc([N+](=O)[O-])cc23)cc1Cl` [Example 51, 4-(3-Chloro-4-methoxybenzyl)amino-1-(4-hydroxy-piperidino)-6-nitrophthalazine hydrochloride], for which 0.052 nM corresponded to half-maximal inhibition in assay [2] (IC50).

`COc1ccc(CNc2nnc(N3CCC(C(=O)O)CC3)c3cc(Cl)c(Cl)cc23)cc1Cl` [Example 67, 1-(4-Carboxypiperidino)-4-(3-chloro-4-methoxybenzyl)amino-6,7-dichlorophthalazine]: in assay [1], the PAP lowering activity was found to be 0.33. The same molecule came in with an IC50 in assay [2] of 0.32 nM.

For `COc1ccc(CNc2nnc(Cl)c3ccc(C#N)cc23)cc1Cl` [Example 1, 1-Chloro-4-(3-chloro-4-methoxybenzyl)amino-6-cyanophthalazine], the PAP lowering activity in assay [1] was at least 3. In assay [2], this molecule returned a concentration for half-maximal inhibition (IC50) of 1.7 nM.

Turning to `COc1ccc(CNc2nnc(Cl)c3ccc([N+](=O)[O-])cc23)cc1Cl` [Example 49, 1-Chloro-4-(3-chloro-4-methoxybenzyl)amino-6-nitrophthalazine], the PAP lowering activity in assay [1] was 1. In assay [2], this molecule yielded a half-maximal inhibitory concentration (IC50) of 1.88 nM.

Regarding `CCOC(=O)C1CCN(c2nnc(NCc3ccc(OC)c(Cl)c3)c3cc([N+](=O)[O-])ccc23)CC1` [Example 55, 1-(4-Ethoxycarbonylpiperidino)-4-(3-chloro-4-methoxybenzyl)amino-6-nitrophthalazine], the PAP lowering activity in assay [1] is at least 1. Besides, the IC50 in assay [2] was 4.59 nM.

In the case of `COc1ccc(CNc2nnc(N3CCC(C)(O)CC3)c3ccc(C#N)cc23)cc1Cl.Cl` [Example 9, 4-(3-Chloro-4-methoxybenzyl)amino-6-cyano-1-(4-hydroxy-4-methylpiperidino)phthalazine hydrochloride], the PAP lowering activity in assay [1] was 10. Also, in assay [2], the IC50 worked out at 0.7 nM.

In the case of `Cl.N#Cc1ccc2c(N3CCC(O)CC3)nnc(NCc3ccc4c(c3)OCO4)c2c1` [Example 26, 6-Cyano-1-(4-hydroxypiperidino)-4-(3,4-methylenedioxy-benzyl)aminophthalazine hydrochloride], in assay [1], the PAP lowering activity turned out to be 1. Also, the IC50 in assay [2] amounted to 4 nM.

`COc1ccc(CNc2nnc(N3CCC(O)CC3)c3ccc(C#N)cc23)cc1Cl` [Example 4, 4-(3-Chloro-4-methoxybenzyl)amino-6-cyano-1-(4-hydroxypiperidino)phthalazine hydrochloride] returned an IC50 in assay [2] of 0.18 nM.

As to `COc1ccc(CNc2nnc(N3CCC(C(=O)O)CC3)c3ccc(C#N)cc23)cc1Cl` [Example 20, 1-(4-Carboxypiperidino)-4-(3-chloro-4-methoxybenzyl)-amino-6-cyanophthalazine hydrochloride], in assay [1], the PAP lowering activity is on record as 0.3-1. Moreover, in assay [2], the IC50 stood at 0.12 nM.

As for `COc1ccc(CNc2nnc(N3CCC(O)CC3)c3ccc(Cl)cc23)cc1Cl.Cl` [Example 32, 6-Chloro-4-(3-chloro-4-methoxybenzyl)amino-1-(4-hydroxypiperidino)phthalazine hydrochloride], the PAP lowering activity in assay [1] was 1. This molecule also came in with an IC50 in assay [2] of 4.4 nM.

Take `COc1ccc(CNc2nnc(N(C)CCCC(=O)O)c3ccc(Cl)cc23)cc1Cl` [Example 44]: in assay [1], the PAP lowering activity was at most 0.33. In addition, the half-inhibitory concentration (IC50) in assay [2] turned out to be 2.1 nM.

As to `COc1ccc(CNc2nnc(N3CCC(CO)CC3)c3ccc(Cl)cc23)cc1Cl` [Example 36, 6-Chloro-4-(3-chloro-4-methoxybenzyl)amino-1-[4-(hydroxymethyl)piperidino]phthalazine], the PAP lowering activity in assay [1] is given as at least 1. Further, inhibition in assay [2] was half-maximal at 1.9 nM (IC50).

As for `COc1ccc(CNc2nnc(NCc3ccccn3)c3ccc(C#N)cc23)cc1Cl` [Example 11, 4-(3-Chloro-4-methoxybenzyl)amino-6-cyano-1-(2-pyridylmethyl)aminophthalazine dihydrochloride], the IC50 in assay [2] was 0.11 nM.

For `COc1ccc(CNc2nnc(N3CCC(CCO)CC3)c3ccc([N+](=O)[O-])cc23)cc1Cl.Cl` [Example 53, 4-(3-Chloro-4-methoxybenzyl)amino-1-[4-(2-hydroxyethyl)piperidino]-6-nitrophthalazine hydrochloride], in assay [1], the PAP lowering activity is recorded as 10. In assay [2], this molecule gave an IC50 of 0.23 nM.

For `COc1ccc(CNc2nnc(N3CCC(C(=O)O)CC3)c3ccc(Cl)cc23)cc1Cl` [Example 43, 1-(4-Carboxypiperidino)-6-chloro-4-(3-chloro-4-methoxybenzyl)aminophthalazine], the PAP lowering activity in assay [1] was determined as 1. The molecule further displayed an IC50 in assay [2] of 0.37 nM.

For `COc1ccc(CNc2nnc(N3CCC(CO)CC3)c3ccc([N+](=O)[O-])cc23)cc1Cl.Cl` [Example 52, 4-(3-Chloro-4-methoxybenzyl)amino-1-[4-(hydroxymethyl)piperidino]-6-nitrophthalazine hydrochloride], the PAP lowering activity in assay [1] was determined as 10. The same molecule displayed an IC50 in assay [2] of 0.1 nM.

As to `COc1ccc(CNc2nnc(N3CCC(=O)CC3)c3ccc(C#N)cc23)cc1Cl.Cl` [Example 19, 4-(3-Chloro-4-methoxybenzyl)amino-6-cyano-1-(4-oxopiperidino)phthalazine hydrochloride], the PAP lowering activity in assay [1] is recorded as 3-10. Moreover, the IC50 in assay [2] was 0.53 nM.

In the case of `COc1ccc(CNc2nn(CCCO)c(=O)c3ccc(C#N)cc23)cc1Cl` [Example 25, 4-(3-Chloro-4-methoxybenzyl)amino-6-cyano-2-(3-hydroxypropyl)-1(2H)-phthalazinone], the PAP lowering activity in assay [1] was 3. Moreover, in assay [2], half-maximal inhibition (IC50) was put at 1.41 nM.

As usually defined, the IC50 is the point on the concentration scale where inhibition reaches its midpoint. Low readings indicate greater potency, high ones weaker potency.
